Tested on: CFTR protein
Experiment: CFTR protein levels, immunoprecipitation and immunoblot with densitometry in HAE
Type: cell-based, human
Method: FIG. 4. […] Alternatively, spiperone was applied apically and basolaterally to well-differentiated HAE for 6 hours, and then removed by rinsing before incubation for 4 hours with CFTR-targeting or NC1 DsiRNAs complexed with Transductin. In both cases, 24 hours after transfection, and RNA levels quantified by RT-qPCR. (b) A representative immunoblot from similarly treated wells, but cells were lysed and proteins visualized after immunoprecipitation with anti-CFTR antibody. Alpha-tubulin was used as a loading control. (c) Densitometry readings of immunoblots with results normalized to NC1 treated samples. In all cases, data are from 3 biological replicates and are mean±SD. ***p<0.001, **p<0.01 (Student's t-test).
HAE were rinsed with PBS and lysed in RIPA buffer (1% NP-40, 0.5% sodium deoxycholate, 0.1% SDS, 50 mM Tris, protease inhibitors [complete; mini, EDTA-free; Roche Biochemicals, Indianapolis, Ind.]) for 30 minutes at 4° C. The lysate were centrifuged in a table top centrifuge at 14,000 rpm for 20 minutes at 4° C. The supernatant was quantified by BCA protein assay kit (Pierce, Rockford, Ill.). Thirty micrograms of protein per lane was separated on a 10% Tris-HCL Criterion precast gel (Bio-Rad, Hercules, Calif.) for western blot analysis. The protein was transferred to Polyvinylidene difluoride membrane and then was probed with goat anti-RSV antibody purchased from Meridian Life Sciences (Memphis, Tenn.). The membrane was imaged, and then stripped with Restore Western Blot Stripping Buffer (Thermo Scientific, Lafayette, Colo.) for 15 minutes. The membrane was rinsed with Tris-buffered saline-Tween (TBS-T) and blocked in 5% bovine serum albumin (Research Products International Corp, Mt. Prospect, Ill.). The membrane was then reprobed with α-tubulin (Sigma-Aldrich).

Which “CFTR protein levels compared to controls” value (PAF or spiperone and CFTR DsiRNA-Transductin, immunoprecipitation, western blot) does the source give for platelet activating factor [PAF] here?
The value was “reduced CFTR protein levels”.

What about the “fully glycosylated CFTR band C” value (densitometry, normalized to NC1 treated samples) of the same substance?
Its value is “significantly decreased”.
